Ends that are not written are not given here. * marks the point of attachment. Octanoyl = CCCCCCCC(=O)*

In assay [1] the target is T1, human LIAS (lipoyl synthase) (Homo sapiens, UniProt O43766).
T1 construct: residues 65-372, N-terminal His6-tag with 10-aa linker kept (pET-28a), E. coli BL21(DE3) with pDB1282; two [Fe4S4] clusters; monomeric in asymmetric unit of 8TRW
T1 sequence (O43766 65-372): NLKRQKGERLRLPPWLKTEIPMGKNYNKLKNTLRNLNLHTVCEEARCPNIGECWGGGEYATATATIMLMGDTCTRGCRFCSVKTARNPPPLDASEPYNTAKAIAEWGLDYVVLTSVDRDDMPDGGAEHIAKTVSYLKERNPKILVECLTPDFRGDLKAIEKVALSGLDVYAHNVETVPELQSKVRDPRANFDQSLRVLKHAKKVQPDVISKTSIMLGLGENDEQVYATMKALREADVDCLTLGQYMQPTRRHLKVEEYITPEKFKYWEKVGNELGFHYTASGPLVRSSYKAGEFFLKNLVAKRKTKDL
Briefly: X-ray crystal structure, […] Å. It is filed as binding. To be noted: co-crystallised with 5'-dAH and OCT-8mer, anaerobic; bidentate to unique Fe of radical SAM [Fe4S4] cluster.

Assay [2] deals with T2, truncated human lipoyl synthase (LIAS isoform 1, aa 65–372) (human).
T2 construct: lipoyl synthase (LIAS), human, isoform 1, residues 65-372; Holds two [Fe4S4] clusters (RS and auxiliary); in the complex with Hpro the auxiliary cluster is [Fe3S3:1 mercaptooctanoyllysyl]; also called human LIAS; trnLIAS; source: E. coli BL21 (DE3) co-transformed with pDB1282, purified anaerobically (Ni-NTA, size-exclusion S-200); not shown: His6 (separated from the protein by a ten aa linker), …
T2 chain: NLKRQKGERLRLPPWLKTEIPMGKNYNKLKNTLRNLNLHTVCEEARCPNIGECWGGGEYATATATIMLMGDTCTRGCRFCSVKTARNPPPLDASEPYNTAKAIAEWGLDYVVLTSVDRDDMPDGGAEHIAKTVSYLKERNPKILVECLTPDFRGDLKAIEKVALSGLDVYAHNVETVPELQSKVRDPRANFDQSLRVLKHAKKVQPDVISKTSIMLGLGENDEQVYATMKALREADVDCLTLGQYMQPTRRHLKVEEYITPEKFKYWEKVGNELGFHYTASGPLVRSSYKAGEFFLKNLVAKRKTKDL
Put plainly: crystal structure; LIAS (8 mg/ml) co-crystallised with 2.5 mM L-Met, 1 mM 5’-dAH and a 1.3x molar ratio of OCT-8mer; anaerobic, hanging drop, 0.1 M HEPES pH 7.5, 0.2 M Na2SO4, 30% PEG 3350, 3% trehalose. To be noted: both partners purified.

As for `CSCC[C@H](N)C(=O)O` [Met, methionine], the “X-ray crystal structure, 1.58 Å” value in assay [1] is “The oxygen and nitrogen atoms of Met are coordinated to the unique iron”.

B1: octanoyl-containing eight amino acid peptide substrate mimic, Glu-Ser-Val-(N6-octanoyl)Lys-Ala-Ala-Ser-Asp (peptide)
peptide: ESVK(Octanoyl)AASD
notes: printed in three-letter code; human Hpro 104-111 is ESVKAASE; also called OCT-8mer; OCT-8-mer; source: synthetic peptide, custom-synthesized by Proimmune (Oxford, UK)
Take B1: the binding result in assay [2] is recorded as “binds”.

The values above are taken from PMC12246082, “Structural basis for catalysis by human lipoyl synthase” (Nature Communications, 2025).
